Reference: patent US9340788B2 (priority 2007, dated 2016)
“Also recorded” adds a separate entry of the source.

Key:
[1] = tested on: HCMV; experiment: Viral attachment and internalization assay (pp65 immunofluorescence); assay type: cell-based, Human cytomegalovirus
Description: (A) HEL cells were pretreated with PBS (20 min 4° C.), IMC-3G3 (2 h, 37° C., 10 μg/ml), or PDGF-AA (20 min, 4° C., 10 ng/ml) prior to infection with HCMV (MOI of 1, 4° C., 1 h). Cells were returned to 37° C. for 30 minutes, and processed for pp65^HCMV and PDGFRα double immunofluorescence. […] All conditions were assayed in triplicate cultures. One hundred cells in 4 low magnification fields were counted. Bars represent SD.
Viral Attachment and Internalization Assays. Mouse fibroblasts and HEL cells (72 hours following siRNA transfections) were incubated with HCMV (MOI of 0.5) or mock treated for 1 hour at 4° C., after which cells were returned to 37° C. for 15, 30, or 60 min. Cells were fixed using methanol (20 min) and processed for pp65 immunofluorescence. Four low power fields were counted for each condition and pp65 positive were recorded for each 100 cells. Internalization assays were repeated twice.

[2] = tested on: HCMV; experiment: HCMV IE1 / viral gene expression, western blot of infected cells; assay type: cell-based, Human cytomegalovirus; details: for HCMV IE1 gene expression: IMC-3G3 10 μg/ml 12 h or Gleevec 100 nM 1 h pre-treatment, western blot
Description: (A) pp65 immunofluorescence after HCMV treatment (1 h, 4° C.) followed by shifting to 37° C. for indicated times. Rows represent (top to bottom): HEL, PDGFRα null fibroblasts, parental fibroblasts, null fibroblasts overexpressing hPDGFRα, HEL transfected with control, or PDGFRα siRNA. Nuclei were stained with DAPI. (B) Average±S.D. pp65 positive/100 cells counted in triplicate from (A). (C) Mock or HCMV infected cells were analyzed by western blotting with the indicated antibodies. Lanes 1-4 indicate HEL, 325S, PDGFRα null and PDGFRα null over-expressing hPDGFRα, respectively. (D) HEL transfected with control or PDGFRα siRNA were mock (lanes 1) or HCMV-treated (lanes 2) and subjected to western blots with indicated antibodies. (E) Western blot of HEL and U87 lysates after infection with mock (lanes 1), HCMV (lanes 2), or HCMV pretreated with IMC-3G3 (10 μg/ml, 12 h, lanes 3) or Gleevec (100 nM, 1 h, lanes 4). (F) PDGFRα siRNA treated cells infected with indicated HCMV strains and immunostained for IE1 12 hpi (primary infection). 6 dpi, supernatants were used to infect naïve HEL cells, followed by IE1 immunostaining and quantification (secondary infection). Average (n=6) values±S.D. are shown.
HUVEC cells were pre-treated with IMC-3G3 (10 μg/ml, Imclone, 12 h), or Gleevec (100 nM, 1 h) prior to HCMV or mock infection. 12 hours post-infection, cell lysates were analyzed by western blot for the presence of IE1 gene product. […] The same blot was stripped and re-probed for actin (lower panel). Lane designation is 1—Mock, 2—HCMV, 3—IMC-3G3+HCMV, 4—Gleevec+HCMV.
Upper panel: HEL cells pretreated with anti-human PDGFRα antibody (10 ng/ml, for 30 min, clone AF-307-NA from R&D; lanes 1 and 3) or with AG 1295 (lane 4, […], from Calbiochem) were stimulated with Towne HCMV (lanes 2 through 4) or Mock infected (lane 1) for 10 min at 37 C. Cells were washed and further incubated for 2 h at 37 C (to allow expression of IE1 gene product). Afterwards, cells were harvested in RIPA buffer and processed for western blotting as described.
Western Blot, Immunoprecipitation, and Immunofluorescence analyses. For stimulation experiments, cells were serum-starved for 24 h, followed by stimulation with HCMV (MOI of 0.5), PDGF-AA (5-10 ng/ml, from R&D Systems), or mock, for 10 minutes. In some cases, cells were pre-treated with IMC-3G3 (ImClone Inc.) at 10 µg/ml (2 or 12 h) or Gleevec® (100 nM, 1 h) prior to HCMV exposure. Cell lysates were analyzed by SDS-PAGE. Antibodies used were as follows: polyclonal anti-PDGFRα ( 1/500), phosphor-Tyrosine clone 4G10 ( 1/1000), and monoclonal anti-p85 PI3-K ( 1/1000), (Upstate Biotechnology), anti HCMV IE1 MAB810 (Chemicon; 1/1000), anti HCMV pp65 (Novocastra, 1/1000), anti-phosphor-PDGFRα ( 1/500, pTyr 754), anti-phosphor-Akt (Ser 473, 1/1000) and total Akt ( 1/1000; all from Cell Signaling). Anti-actin polyclonal control antibody was used ( 1/500, Sigma). Immunoprecipitations were performed using protein G (Pierce) according to manufacturer's instructions. For immunofluorescence, monoclonal HCMV pp65 and phosphor-PDGFRα (p-Tyr 754, Santa Cruz Biotechnology) were used, overnight at 4° C., followed by 1 hour incubation with secondary antibodies conjugated to Alexa-488, or Alexa 568 ( 1/5,000, Molecular Probes). Nuclei were counterstained with DAPI. Co-immunoprecipitation experiments were performed using full length soluble purified recombinant gB (gB 680, from Don Diamond, City of Hope, Calif.) and detergent soluble extract of HEL cells generated in lysis buffer (1% NP-40, 75 mM NaCl and 50 mM Tris-HCl). 500 μg of protein from total cell extract was incubated with 25 μg of gB 680 in lysis buffer in the presence of an anti-gB (Virusys, Inc) or anti-PDGFRα (R&D) antibody overnight at 4° C. Immune complexes were recovered with protein A-Sepharose beads (2 hr incubation), denatured and separated on SDS-PAGE for western blot with anti-gB (Virusys, Inc) or anti-PDGFRα (Cell Signaling Technology) antibodies.

[3] = tested on: PI3-K/Akt signaling; assay type: cell-based, human
Description: (A) HEL cells stimulated with HCMV or PDGF-AA were subjected to immunoprecipitation and western blot analyses with indicated antibodies. (B) Phospho-PDGFRα ELISA of cells+/−pretreatment with IMC-3G3 (10 μg/ml, 2 h) followed by HCMV (MOI=1) or PDGF (10 ng/ml) for 10 min. Mean values (n=6)±S.D are shown. (C) Western blot of HEL mock, HCMV, or PDGF-AA stimulated (10 min), +/−IMC-3G3 (2 μg/ml) or Gleevec® (Imatinib) (100 nM). The same membrane was used for p-Akt^Ser 473 and Akt.
HEL cells pretreated with blocking reagents (as indicated; 30 min, 37 C) were stimulated for 10 min with HCMV, PDGF-AA (5 ng/ml), or mock-treated. Cell lysates were collected in RIPA buffer (supplemented with protease and phosphatase inhibitors) and subjected to Western blot analysis.
For stimulation experiments, cells were serum-starved for 24 h, followed by stimulation with HCMV (MOI of 0.5), PDGF-AA (5-10 ng/ml, from R&D Systems), or mock, for 10 minutes. In some cases, cells were pre-treated with IMC-3G3 (ImClone Inc.) at 10 g/ml (2 or 12 h) or Gleevec® (100 nM, 1 h) prior to HCMV exposure. Cell lysates were analyzed by SDS-PAGE. Antibodies used were as follows: polyclonal anti-PDGFRα ( 1/500), phosphor-Tyrosine clone 4G10 ( 1/1000), and monoclonal anti-p85 PI3-K ( 1/1000), (Upstate Biotechnology), anti HCMV IE1 MAB810 (Chemicon; 1/1000), anti HCMV pp65 (Novocastra, 1/1000), anti-phosphor-PDGFRα ( 1/500, pTyr 754), anti-phosphor-Akt (Ser 473, 1/1000) and total Akt ( 1/1000; all from Cell Signaling). Anti-actin polyclonal control antibody was used ( 1/500, Sigma). Immunoprecipitations were performed using protein G (Pierce) according to manufacturer's instructions.

[4] = tested on: HCMV; experiment: HCMV pp65 western blot in HEL cells; assay type: cell-based, Human cytomegalovirus; details: antibody 10 ng/ml 30 min or AG 1295 20 pM, Towne HCMV 10 min at 37 C
Description: HEL cells were transfected with siRNA against the PI3K p110α catalytic subunit (a mixture of 4 RNAi oligos, “smart pool” from Dharmacon) or non-targeting, control siRNA (Dharmacon) for 48 h prior to infection with HCMV (MOI of 1) for 1 hour. Cells were washed and cultured for 2 h-6 days. a. […] The mean number of IE1 positive cells is reduced by ˜50% in the PI3 Kp110α knockdown cultures—panel c**, p<0.01. PI3K p110α knock down is also significant (b, left panels, red fluorescence). However, unlike cells that lack a functional PDGFRα, PI3K p110α knock down cells are capable of producing infectious virus as shown by IE1 staining of the secondary infected cultures (panel d). A 10% decrease in infectious virus production in the cells treated with p110α siRNA is insignificant*, bars represent SD, […], panel c. Experiments were repeated twice, all conditions were assayed in triplicate. Similar results were obtained with both Towne-infected cultures (illustrated in this figure) and CMV-GFP.
Upper panel: HEL cells pretreated with anti-human PDGFRα antibody (10 ng/ml, for 30 min, clone AF-307-NA from R&D; lanes 1 and 4) or with AG 1295 (lane 3, […], from Calbiochem) were stimulated with Towne HCMV (lanes 2-4) or Mock infected (lane 1) for 10 min at 37 C. […]
Western Blot, Immunoprecipitation, and Immunofluorescence analyses. […] Cell lysates were analyzed by SDS-PAGE. […]

[5] = tested on: HCMV; experiment: IE1 immunofluorescence of HCMV infected HEL cells; assay type: cell-based, Human cytomegalovirus; details: HEL; antibody 1 h or AG1295 15 min before HCMV; 1 h at 37 C plus additional 6 h
Description: HEL cells were transfected with PDGFRα siRNA (smart pool, Dharmacon) or non-targeting control siRNA (Dharmacon) for 48-60 hours when maximum protein knockdown is achieved (panels a and b. Also see FIG. 3d). Cells were then infected with Towne, AD169, TR, or CMV-GFP strains of HCMV for 1 hour, washed and returned to 37° C. in complete growth media. Supernatants obtained from these cultures were used in subsequent assays measuring production of infectious virus as described below. […] Cultures infected with supernatants from GFP-CMV treated cells were monitored daily under the fluorescence microscope. Over 40% of the control siRNA treated cells expressed CMV-GFP 1 day post infection (c, 1 dpi) and this number increased to 100% by day 6 (c, 6 dpi). Note the appearance of “plaques”-like groups of cells in control siRNA transfected cells (c, 3 and 6 dpi). […]
Measurements of Infectious Virus Production. […] A duplicate set of cultures was analyzed by immunofluorescence at 12 hours post infection (hpi) to assess percent of IE1 positive cells, as a measure of “primary infection”. […] 12 hpi cells were stained for IE1 and IE1 positive cells were counted amongst a total of 100 cells/low magnification microscopic field, 4 fields/condition. […] Where indicated, CMV-GFP infected cells were monitored daily under fluorescence microscope. […]

[6] = human epithelial, endothelial, and fibroblast cells

Q: With “PDGF-AA: the authentic (genuine) PDGFRα ligand, from R&D Systems [reference compound]” as the compound, how does the HCMV entry ([1]; HEL cells harboring endogenous PDGFRα, pretreatment with PDGF-AA) read?
A: Its HCMV entry is “significantly decreased; also recorded: competitively inhibited”.

Q: What about the “inhibition of HCMV entry (pp65 positive cells)” value ([1]; HEL cells, IMC-3G3 2 h, 37° C., 10 μg/ml, PDGF-AA 20 min, 4° C., 10 ng/ml, HCMV MOI of 1, 30 min at 37° C.) of the same compound?
A: Its value is roughly 30%.

Q: Which results are given for `Cc1ccc(NC(=O)c2ccc(CN3CCN(C)CC3)cc2)cc1Nc1nccc(-c2cccnc2)n1` [Gleevec, 4-[(4-methylpiperazin-1-yl)methyl]-N-[4-methyl-3-[(4-pyridin-3-ylpyrimidin-2-yl)amino]-phenyl]-benzamide, reference compound]?
A: HCMV IE1 gene expression ([2]; HEL cells): completely inhibited; HCMV IE1 expression ([2]; HUVEC, pre-treated with IMC-3G3 10 μg/ml 12 h or Gleevec 100 nM 1 h, western blot 12 hours post-infection): completely inhibited; HCMV IE1 gene expression ([2]; U87 glioma cells): completely inhibited; HCMV gene expression [2, 6]: completely inhibited; Akt phosphorylation induced by either HCMV or PDGF-AA ([3]; HEL, 10 min stimulation, IMC-3G3 2 μg/ml or Gleevec 100 nM, p-Akt Ser 473): abolished; HCMV viral internalization [1, 6]: completely inhibited

Q: What does the source list for `Cc1cc2ncc(-c3ccccc3)nc2cc1C` [AG1295, reference compound]?
A: amount of pp65 (anti-pp65 blot) [4]: decrease; IE1 levels [5]: significant decrease; p-Akt levels induced by either PDGF or HCMV ([3]; HEL pretreated with blocking reagents 30 min, 37 C, stimulated 10 min with HCMV or PDGF-AA 5 ng/ml): decreased
